US8940730B2, “Methods and compositions of treating a Flaviviridae family viral infection” (The Board of Trustees of the Leland Stanford Junior …, priority 2007, dated 2015)

Experiments:
[1] = system: HCV genotype 2a infectious clone; assay: HCV genotype 2a infectious clone assay (Renilla luciferase); type: cell-based; conditions: % replication activity of control with no test compound; for activity at 5 µM: Hepatitis C virus, read-out: 2a (% activity @ 5 μM), 5 μM
Method: The assays in parts A and B were used to generate the genotype 1b inhibitory activity and related cell toxicity (viability) data supported herein. This assay has been used to generate the genotype 2a inhibitory activity data supported herein.
(§1) 1) Wash cells once with PBS, trypsinize. […] Mix twice by pipeting. […] Make a common stock from all tubes. […] 15) Incubate for 24 hr before treatment.
(§2) 3) Repeat daily for 2 more days.

Huh7.5 cells = conditions: human, 3 days
Method: as §1, §2
1) Alamar blue assay—a) Include medium for background subtraction (and also for seeing change in color easily). b) Aspirate medium. c) Make a stock of medium plus 10% Alamar blue. Total volume per well is 100 μl. d) Incubate for 2-2.5 hrs at 37° C. (or until there is a color change). c) Read plates at flex station.

hERG channel = molecular target: T1, hERG channel (Homo sapiens, UniProt Q12809); assay: HERG channel assay (whole cell patch clamp, CHO cells); type: cell-based; conditions: CHO cells expressing hERG, tail current
T1 construct: host or cells: CHO (Chinese Hamster Ovary), stably transfected
T1 sequence (Q12809 whole entry): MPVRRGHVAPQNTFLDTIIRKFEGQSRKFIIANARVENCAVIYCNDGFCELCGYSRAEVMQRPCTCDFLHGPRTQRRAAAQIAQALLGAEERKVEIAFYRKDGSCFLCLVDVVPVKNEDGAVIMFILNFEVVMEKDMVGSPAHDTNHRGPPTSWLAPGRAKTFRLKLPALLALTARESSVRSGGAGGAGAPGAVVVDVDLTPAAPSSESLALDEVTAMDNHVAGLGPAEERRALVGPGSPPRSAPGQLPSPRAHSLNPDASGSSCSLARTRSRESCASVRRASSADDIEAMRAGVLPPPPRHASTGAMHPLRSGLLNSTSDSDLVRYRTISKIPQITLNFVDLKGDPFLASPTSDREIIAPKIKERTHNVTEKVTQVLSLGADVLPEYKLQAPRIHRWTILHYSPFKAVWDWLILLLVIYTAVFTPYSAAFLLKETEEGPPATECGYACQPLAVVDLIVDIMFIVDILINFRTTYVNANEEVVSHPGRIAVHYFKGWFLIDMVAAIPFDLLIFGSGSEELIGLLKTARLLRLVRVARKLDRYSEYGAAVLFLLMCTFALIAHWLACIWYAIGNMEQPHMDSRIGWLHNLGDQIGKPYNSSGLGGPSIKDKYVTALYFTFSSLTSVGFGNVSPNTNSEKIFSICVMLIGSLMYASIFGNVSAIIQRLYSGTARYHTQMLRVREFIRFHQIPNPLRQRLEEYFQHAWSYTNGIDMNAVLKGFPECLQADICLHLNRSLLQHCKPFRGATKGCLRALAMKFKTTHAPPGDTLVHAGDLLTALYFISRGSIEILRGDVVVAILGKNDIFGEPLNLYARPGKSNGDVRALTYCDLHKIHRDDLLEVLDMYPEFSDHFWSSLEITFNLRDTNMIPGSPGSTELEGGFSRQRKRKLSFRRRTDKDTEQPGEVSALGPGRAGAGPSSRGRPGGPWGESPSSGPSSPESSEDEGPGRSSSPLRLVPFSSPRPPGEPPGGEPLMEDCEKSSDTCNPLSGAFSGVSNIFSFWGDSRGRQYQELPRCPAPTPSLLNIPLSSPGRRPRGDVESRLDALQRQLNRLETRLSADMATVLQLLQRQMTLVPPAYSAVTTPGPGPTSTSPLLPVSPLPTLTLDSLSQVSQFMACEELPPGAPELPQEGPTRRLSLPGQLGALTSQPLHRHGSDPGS
Method: Solutions: For electrophysiological recordings, the following solutions were used. External Solution: 2 mM CaCl2; 2 mM MgCl2; 4 mM KCl; 150 mM NaCl; 10 mM Glucose; 10 mM HEPES; 310-320 mOsm; pH 7.4 (adjusted with 1M NaOH). Internal Solution: 140 mM KCl; 10 mM MgCl2; 6 mM EGTA; 5 mM HEPESNa; […]; 300-320 mOsm; pH 7.25 (adjusted with 1M KOH).
Next, 1 μM cisapride (positive control) was added.
Data Analysis: Data analysis was performed using DataXpress (Axon Instruments), Clampfit (Axon Instruments) and Origin (Originlab Corporation) software.
In addition, activity against hERG potassium channel was tested on representative compounds. […] Compounds having a structure similar to that of EBP288 (compounds that contain, in R3, an N-attached heterocycle where substitutions adjacent to the nitrogen are small) should have a similar activity in this assay. […] Compounds having a structure similar to the aforementioned compound (compounds that contain, in R3, a C-attached heterocycle where heteroatom is acylated N) should have a similar activity in this assay. Generally, compounds that show no or only low activity in the hERG assay are preferred.

HCV 1b RNA replicon = assay: Luciferase assay for HCV genotype 1b replicon reporter cell lines; conditions: Hepatitis C virus, Huh-7, 48 h, read-out: 1b EC50, 1b replicon, Huh7, 48 hours, top concentration 25 μM
Huh7 cell line = assay: MTT assay for HCV replicon reporter cell lines (cell toxicity); type: cell-based; conditions: Homo sapiens, Huh-7; cell toxicity, MTT, top concentration 25 μM; read-out: Cell Viability EC50

SMILES	activity at 5 µM [1] [%]	2a cell viability (@ 5 μM) (Huh7.5 cells) [%]	IC50 (hERG channel) [µM]	EC50 (HCV 1b RNA replicon) [µM]	EC50 (Huh7 cell line) [µM]	2a (% activity @ 5 μM) ([1]; 5 μM) [%]
Cc1ccc(Cn2nc(OCCN3CCCC3)c3ccccc32)cc1 [EBP335]	73	10	–	–	–	–
OC[C@@H]1CCCN1CCCOc1nn(Cc2ccc(Cl)cc2)c2ccccc12 [EBP383]	35	100	0.9	4.2	> 25	–
Clc1ccc(Cn2nc(OCCN3CCCC3)c3ccccc32)cc1 [EBP333]	56	97	–	–	–	–
O=C(O)C[C@@H]1CCCN1CCCOc1nn(Cc2ccc(Cl)cc2)c2ccccc12 [EBP508]	77	100	–	–	–	–
Cc1ccc2c(c1)c(OCCN(C)C)nn2Cc1ccccc1 [EBP182]	82	100	–	–	–	–
OCC1CCCCN1CCCOc1nn(Cc2ccc(Cl)cc2)c2ccc(Cl)cc12 (centres unmarked) [EBP503]	36	86	–	7.2	> 25	–
O[C@H]1CC[C@H](O)N1CCCOc1nn(Cc2ccc(Cl)cc2)c2ccccc12 [EBP515]	–	–	2.6	4.9	> 25	–
Clc1ccc(Cn2nc(OCCCN3CCCCCC3)c3ccccc32)cc1 [EBP397]	14	100	–	2.8	> 25	–
Clc1ccc(Cn2nc(OCCCN3CCC[C@H]3CNc3ccccc3)c3ccccc32)cc1 [EBP524]	–	–	2.6	8.3	> 25	–
Clc1ccc(Cn2nc(OCCN3CCC[C@H]3CN3CCCC3)c3ccccc32)cc1 [EBP403]	50	97	–	3.8	> 25	–
Clc1ccc(Cn2nc(OCCCN3CCC[C@H]3CN3CCCC3)c3ccccc32)cc1 [EBP395]	41	89	2	4.4	> 25	–
c1ccc(Cn2nc(OCCN3CCCCC3)c3ccccc32)cc1 [EBP175]	89	98	–	–	–	–
COc1ccc(Cn2nc(OCCCN3CCCC3)c3ccccc32)cc1 [EBP327]	89	98	–	–	–	–
Cc1ccc2c(c1)c(OCCCN1CCCC1)nn2Cc1ccccc1 [EBP178]	25	92	–	–	–	–
c1ccc2c(c1)c(OCCN1CCCC1)nn2CC1CCCCC1 [EBP339]	69	100	–	–	–	–
Clc1ccc(Cn2nc(OCCCN3CCCC3)c3ccccc32)cc1 [EBP288]	24	89	1	3.7	> 25	–
c1ccc2c(c1)c(OCCN1CCCC1)nn2CC1CCCNC1 (centres unmarked) [EBP360]	80	92	–	–	–	–
Clc1cccc(Cn2nc(OCCN3CCCC3)c3ccccc32)c1 [EBP334]	69	100	–	–	–	–
Cc1ccc2c(c1)c(OCCN1CCCCC1)nn2Cc1ccccc1 [EBP176]	58	98	–	–	–	–
c1ccc(Cn2nc(OCCCN3CCCC3)c3ccccc32)cc1 [EBP177]	53	100	–	–	–	–
C[C@H]1CCCN1CCCOc1nn(Cc2ccc(Cl)cc2)c2ccccc12 [EBP391]	35	100	0.23	4	> 25	–
COC(=O)[C@@H]1CC[C@H](O)N1CCCOc1nn(Cc2ccc(Cl)cc2)c2ccccc12 [EBP507]	87	90	–	–	–	–

SMILES	activity at 5 µM [1] [%]	2a cell viability (@ 5 μM) (Huh7.5 cells) [%]	IC50 (hERG channel) [µM]	EC50 (HCV 1b RNA replicon) [µM]	EC50 (Huh7 cell line) [µM]	2a (% activity @ 5 μM) ([1]; 5 μM) [%]
CC(C)c1ccc(Cn2nc(OCCN3CCCC3)c3ccccc32)cc1 [EBP336]	38	95	–	5.1	> 25	–
CC(C)(C)OC(=O)N1CCC(Cn2nc(OCCN3CCCC3)c3ccccc32)CC1 [EBP340]	62	98	–	–	–	–
C[C@@H](COc1nn(Cc2ccc(Cl)cc2)c2ccccc12)CN1CCC[C@H]1CO [EBP449]	83	99	–	–	–	–
C[C@H]1CCCN1CCCOc1nn(Cc2ccc(Cl)cc2)c2ccccc12 [EBP389]	–	–	–	–	–	44
c1ccc(Cn2nc(OCCCN3CCCCC3)c3ccccc32)cc1 [EBP192]	50	88	–	–	–	–
COC(=O)c1cccc(Cn2nc(OCCN3CCCC3)c3ccccc32)c1 [EBP338]	79	100	–	–	–	–
CN(C)CCOc1nn(CCc2ccc(Cl)cc2)c2ccccc12 [EBP332]	66	100	–	–	–	–
CCN(CC)c1ccc2c(c1)c(OCCCN1CCCC1)nn2Cc1ccc(Cl)cc1 [EBP534]	–	–	2.8	3.3	> 25	–
Cc1ccc2c(c1)c(OCCCN(C)C)nn2Cc1ccccc1 [EBP151]	62	92	–	–	–	–
c1cncc(Cn2nc(OCCN3CCCC3)c3ccccc32)c1 [EBP356]	68	95	–	–	–	–
O[C@H]1CCN(CCOc2nn(Cc3ccc(Cl)cc3)c3ccccc23)C1 [EBP400]	84	100	–	–	–	–
OC[C@H]1CCCN1CCCOc1nn(Cc2ccc(Cl)cc2)c2ccccc12 [EBP516]	–	–	0.81	4.7	> 25	–
c1ccc2c(c1)c(OCCN1CCCC1)nn2Cc1ccncc1 [EBP357]	77	94	–	–	–	–
Clc1ccc(Cn2nc(OCC3CCNCC3)c3cc(Cl)ccc32)cc1 [EBP640]	–	–	5.3	5	> 25	–
COc1ccc(Cn2nc(OCCCN3CCCCC3)c3ccccc32)cc1 [EBP328]	71	100	–	–	–	–
COC(=O)C1CCCCN1CCCOc1nn(Cc2ccc(Cl)cc2)c2ccccc12 (centres unmarked) [EBP505]	87	94	–	–	–	–
C[C@H](COc1nn(Cc2ccc(Cl)cc2)c2ccccc12)CN1CCC[C@H]1CO [EBP454]	69	93	–	–	–	–
COc1ccc(COc2nn(Cc3ccc(OC)cc3)c3ccccc23)cc1 [EBP330]	75	100	–	–	–	–
NC(=O)[C@@H]1CCCN1CCCOc1nn(Cc2ccc(Cl)cc2)c2ccccc12 [EBP385]	75	100	–	–	–	–
CCOC(=O)[C@@H]1CCCN1CCCOc1nn(Cc2ccc(Cl)cc2)c2ccccc12 [EBP512]	78	100	–	–	–	–
Cc1ccc2c(c1)c(OCCN1CCCC1)nn2Cc1ccccc1 [EBP181]	58	100	–	–	–	–
